The record followed here is US20090298820A1, “3-SUBSTITUTED-1H-PYRROLO[2,3-B]PYRIDINE AND 3-SUBSTITUTED-1H-PYRROLO[3,2-B]PYRIDINE COMPOUNDS, THEIR USE AS MTOR KINASE AND PI3 KINASE INHIBITORS, AND THEIR SYNTHESES” (Wyeth, priority 2008, published 2009).

pIC50: −log10 of the molar value. Some results are limits rather than exact numbers.

Format in all cases: biochemical
In one assay the target is mTOR (Homo sapiens, UniProt P42345). Description: mTOR enzyme assay (DELFIA format, His6-S6K substrate). The following applies: read-out: mTOR Kinase Median IC50.
For the next assay, the target named is PI3Kγ (Homo sapiens, UniProt P48736). Description: PI3K-gamma fluorescence polarization assay. The following applies: read-out: PI3Kγ Median IC50. Background: In fluorescence polarisation assays a small probe gives low polarisation when free and higher when bound to something large.
Sequence of PI3Kγ (P48736 whole entry, species assumed): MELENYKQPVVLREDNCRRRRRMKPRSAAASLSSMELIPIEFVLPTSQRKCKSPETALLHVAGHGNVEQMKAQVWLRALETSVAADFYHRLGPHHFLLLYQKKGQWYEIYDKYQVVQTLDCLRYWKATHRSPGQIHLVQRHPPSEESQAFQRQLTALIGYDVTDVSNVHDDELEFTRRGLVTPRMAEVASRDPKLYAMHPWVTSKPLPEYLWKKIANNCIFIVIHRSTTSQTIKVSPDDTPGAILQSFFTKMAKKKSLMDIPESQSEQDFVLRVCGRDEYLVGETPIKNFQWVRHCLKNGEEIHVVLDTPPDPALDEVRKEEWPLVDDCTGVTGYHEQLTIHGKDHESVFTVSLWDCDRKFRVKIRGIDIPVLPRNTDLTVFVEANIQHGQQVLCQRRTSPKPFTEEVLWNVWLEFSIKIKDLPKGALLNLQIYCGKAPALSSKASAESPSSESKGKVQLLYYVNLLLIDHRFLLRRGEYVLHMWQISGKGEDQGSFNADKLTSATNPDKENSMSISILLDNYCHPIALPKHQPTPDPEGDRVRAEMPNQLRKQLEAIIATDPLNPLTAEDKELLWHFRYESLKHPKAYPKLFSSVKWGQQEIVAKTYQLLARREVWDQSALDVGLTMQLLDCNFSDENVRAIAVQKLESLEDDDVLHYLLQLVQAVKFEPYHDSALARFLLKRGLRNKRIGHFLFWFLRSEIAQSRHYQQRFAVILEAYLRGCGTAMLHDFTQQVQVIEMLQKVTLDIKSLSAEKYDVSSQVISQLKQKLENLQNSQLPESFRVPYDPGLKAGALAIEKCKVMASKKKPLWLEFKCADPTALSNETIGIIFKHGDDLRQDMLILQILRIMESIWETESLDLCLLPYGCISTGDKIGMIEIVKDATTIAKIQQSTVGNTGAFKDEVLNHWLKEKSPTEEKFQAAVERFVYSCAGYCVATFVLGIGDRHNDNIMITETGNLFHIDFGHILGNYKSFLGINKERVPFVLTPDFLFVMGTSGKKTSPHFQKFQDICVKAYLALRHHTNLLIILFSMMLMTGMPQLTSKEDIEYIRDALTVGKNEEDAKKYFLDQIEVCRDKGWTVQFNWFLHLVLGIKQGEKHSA
The target in the next assay is PI3Kα (Homo sapiens, UniProt P42336). The assay can be described thus: PI3K-alpha fluorescence polarization assay. The following applies: read-out: PI3Kα Median IC50.
Sequence of PI3Kα (P42336 whole entry, species assumed): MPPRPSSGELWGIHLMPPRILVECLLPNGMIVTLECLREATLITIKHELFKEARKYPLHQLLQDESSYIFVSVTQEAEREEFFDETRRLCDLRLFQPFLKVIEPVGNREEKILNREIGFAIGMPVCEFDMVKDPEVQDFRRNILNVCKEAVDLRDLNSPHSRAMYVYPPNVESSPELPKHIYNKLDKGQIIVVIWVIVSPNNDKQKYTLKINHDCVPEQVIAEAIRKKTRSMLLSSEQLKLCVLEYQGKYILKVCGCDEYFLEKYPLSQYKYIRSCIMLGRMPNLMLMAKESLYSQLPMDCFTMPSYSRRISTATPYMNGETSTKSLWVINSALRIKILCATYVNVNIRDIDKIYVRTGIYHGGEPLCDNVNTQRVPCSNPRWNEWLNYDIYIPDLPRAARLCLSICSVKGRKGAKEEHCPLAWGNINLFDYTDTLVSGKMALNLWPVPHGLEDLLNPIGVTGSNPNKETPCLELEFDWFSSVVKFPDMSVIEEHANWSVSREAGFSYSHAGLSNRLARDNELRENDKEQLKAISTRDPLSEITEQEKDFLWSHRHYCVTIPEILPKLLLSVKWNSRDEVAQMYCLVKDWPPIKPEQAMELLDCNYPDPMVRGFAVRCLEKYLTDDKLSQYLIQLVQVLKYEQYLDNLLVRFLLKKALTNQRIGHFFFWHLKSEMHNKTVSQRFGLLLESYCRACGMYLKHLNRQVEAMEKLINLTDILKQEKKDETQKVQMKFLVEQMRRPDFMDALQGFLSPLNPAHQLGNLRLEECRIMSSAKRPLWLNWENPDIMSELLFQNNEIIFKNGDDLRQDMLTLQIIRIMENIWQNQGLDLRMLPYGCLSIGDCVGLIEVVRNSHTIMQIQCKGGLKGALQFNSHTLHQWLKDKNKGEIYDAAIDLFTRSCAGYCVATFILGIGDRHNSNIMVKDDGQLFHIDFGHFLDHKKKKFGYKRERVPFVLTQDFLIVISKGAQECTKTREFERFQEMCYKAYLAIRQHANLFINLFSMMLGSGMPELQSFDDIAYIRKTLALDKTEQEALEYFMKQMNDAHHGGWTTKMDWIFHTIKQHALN
Sequence of PI3Kα (P27986 whole entry partner, species assumed): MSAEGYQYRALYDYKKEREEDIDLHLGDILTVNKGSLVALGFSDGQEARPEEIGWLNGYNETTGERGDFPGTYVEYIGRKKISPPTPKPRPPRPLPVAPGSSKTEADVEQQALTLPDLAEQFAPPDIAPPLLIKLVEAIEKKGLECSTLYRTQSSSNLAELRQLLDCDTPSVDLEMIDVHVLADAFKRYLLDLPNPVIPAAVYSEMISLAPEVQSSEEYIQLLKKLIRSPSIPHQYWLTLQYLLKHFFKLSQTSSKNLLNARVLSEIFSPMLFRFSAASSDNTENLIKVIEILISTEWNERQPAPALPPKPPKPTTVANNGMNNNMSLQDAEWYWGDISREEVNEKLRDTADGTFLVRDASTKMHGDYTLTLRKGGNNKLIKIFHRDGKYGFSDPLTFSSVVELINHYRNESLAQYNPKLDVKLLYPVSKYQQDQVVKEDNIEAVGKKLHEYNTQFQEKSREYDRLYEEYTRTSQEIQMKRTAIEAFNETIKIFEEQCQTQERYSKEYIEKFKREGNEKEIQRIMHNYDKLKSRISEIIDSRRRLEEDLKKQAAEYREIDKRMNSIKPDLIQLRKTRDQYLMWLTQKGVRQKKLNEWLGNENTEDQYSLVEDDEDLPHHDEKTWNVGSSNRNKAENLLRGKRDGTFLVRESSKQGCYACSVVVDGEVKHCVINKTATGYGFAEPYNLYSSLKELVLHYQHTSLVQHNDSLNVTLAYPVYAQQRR

As a reminder, the pIC50 is −log10 of the IC50, conventionally taken in molar units. Turning to `Cn1cc(/C=C2\Oc3ccc(Br)cc3C2=O)c2c(N3CC4CCC(C3)O4)ccnc21` [Compound 59, (2Z)-5-bromo-2-{[1-methyl-4-(8-oxa-3-azabicyclo[3.2.1]oct-3-yl)-1H-pyrrolo[2,3-b]pyridin-3-yl]methylene}-1-benzofuran-3(2H)-one], the figures for the pIC50 on mTOR, at PI3Kγ and at PI3Kα were 7.45, 6.01 and 6.41, respectively.

In the case of `CCNC(=O)Nc1ccc2c(c1)C(=O)/C(=C/c1cn(C)c3nccc(N4CC5CCC(C4)O5)c13)O2` [Compound 61, 1-ethyl-3-[(2Z)-2-{[1-methyl-4-(8-oxa-3-azabicyclo[3.2.1]oct-3-yl)-1H-pyrrolo[2,3-b]pyridin-3-yl]methylene}-3-oxo-2,3-dihydro-1-benzofuran-5-yl]Urea], the pIC50 is 7.24 on mTOR, 6.18 on PI3Kγ and 6.51 at PI3Kα.

Take `Cn1cc(/C=C2\Oc3cccc(O)c3C2=O)c2c(-c3ccc(N4CCOCC4)nc3)ccnc21` [Compound 69, (2Z)-4-hydroxy-2-{[1-methyl-4-(6-morpholin-4-ylpyridin-3-yl)-1H-pyrrolo[2,3-b]pyridin-3-yl]methylene}-1-benzofuran-3(2H)-one]: the pIC50 at mTOR is 7.61; on PI3Kγ, 6.55; on PI3Kα, 7.19.

On to `Cn1cc(/C=C2\Oc3cccc(O)c3C2=O)c2c(-c3ccc(N4CCCCC4)nc3)ccnc21` [Compound 70, (2Z)-4-hydroxy-2-{[1-methyl-4-(6-piperidin-1-ylpyridin-3-yl)-1H-pyrrolo[2,3-b]pyridin-3-yl]methylene}-1-benzofuran-3(2H)-one], for which the pIC50 was 6.94 at mTOR, 6.62 on PI3Kγ and 6.57 on PI3Kα.

Regarding `Cn1cc(/C=C2\Oc3cccc(O)c3C2=O)c2c(-c3ccc(S(C)(=O)=O)cc3)ccnc21` [Compound 73, (2Z)-4-hydroxy-2-({1-methyl-4-[4-(methylsulfonyl)phenyl]-1H-pyrrolo[2,3-b]pyridin-3-yl}methylene)-1-benzofuran-3(2H)-one], the negative logarithm of the IC50 (pIC50) on mTOR is 8.51; at PI3Kγ, 7.12; on PI3Kα it was 7.64.

Take `CNS(=O)(=O)c1ccc(-c2ccnc3c2c(/C=C2\Oc4cc(O)cc(O)c4C2=O)cn3C)cc1` [Compound 77, 4-{3-[(Z)-(4,6-dihydroxy-3-oxo-1-benzofuran-2(3H)-ylidene)methyl]-1-methyl-1H-pyrrolo[2,3-b]pyridin-4-yl}-N-methylbenzenesulfonamide]: the pIC50 on mTOR was 9.70; on PI3Kγ, 7.66; on PI3Kα it was 8.70.

As for `Cn1cc(/C=C2\Oc3cc(O)cc(O)c3C2=O)c2c(C3=CCNCC3)ccnc21` [Compound 78, (2Z)-4,6-dihydroxy-2-{[1-methyl-4-(1,2,3,6-tetrahydropyridin-4-yl)-1H-pyrrolo[2,3-b]pyridin-3-yl]methylene}-1-benzofuran-3(2H)-one], the negative logarithm of the IC50 (pIC50) on mTOR is 8.30; at PI3Kγ, 6.50; at PI3Kα it was 7.51.

For the molecule `Cn1cc(/C=C2\Oc3cc(O)cc(O)c3C2=O)c2c(-c3cccc(C(=O)N4CCCC4)c3)ccnc21` [Compound 79, (2Z)-4,6-dihydroxy-2-({1-methyl-4-[3-(pyrrolidin-1-ylcarbonyl)phenyl]-1H-pyrrolo[2,3-b]pyridin-3-yl}methylene)-1-benzofuran-3(2H)-one], the pIC50 at mTOR is 8.85; at PI3Kγ it was 7.31; at PI3Kα, 8.10.

On to `Cn1cc(/C=C2\Oc3cc(O)cc(O)c3C2=O)c2c(-c3cccc(S(=O)(=O)N4CCCCC4)c3)ccnc21` [Compound 80, (2Z)-4,6-dihydroxy-2-({1-methyl-4-[3-(piperidin-1-ylsulfonyl)phenyl]-1H-pyrrolo[2,3-b]pyridin-3-yl}methylene)-1-benzofuran-3(2H)-one], for which the results for the pIC50 at mTOR, at PI3Kγ and at PI3Kα were 8.74, 7.16 and 7.64, respectively.

Consider `COc1ccc(-c2ccnc3c2c(/C=C2\Oc4cccc(O)c4C2=O)cn3C)cc1S(=O)(=O)N1CCOCC1` [Compound 81, (2Z)-4-hydroxy-2-({4-[4-methoxy-3-(morpholin-4-ylsulfonyl)phenyl]-1-methyl-1H-pyrrolo[2,3-b]pyridin-3-yl}methylene)-1-benzofuran-3(2H)-one], for which the results for the pIC50 at mTOR, at PI3Kγ and at PI3Kα were 8.80, 7.10 and 7.55, respectively.

In the case of `Cn1cc(/C=C2\Oc3cccc(O)c3C2=O)c2c(-c3ccc(S(=O)(=O)NC4CC4)cc3)ccnc21` [Compound 82, N-cyclopropyl-4-{3-[(Z)-(4-hydroxy-3-oxo-1-benzofuran-2(3H)-ylidene)methyl]-1-methyl-1H-pyrrolo[2,3-b]pyridin-4-yl}benzenesulfonamide], the pIC50 is 8.85 on mTOR, 7.15 at PI3Kγ and 7.70 on PI3Kα.

Consider `Cn1cc(/C=C2\Oc3cccc(O)c3C2=O)c2c(-c3ccc(C(=O)Nc4ccc(F)cc4)cc3)ccnc21` [Compound 83, N-(4-fluorophenyl)-4-{3-[(Z)-(4-hydroxy-3-oxo-1-benzofuran-2(3H)-ylidene)methyl]-1-methyl-1H-pyrrolo[2,3-b]pyridin-4-yl}benzamide], for which the pIC50 on mTOR was 8.02; on PI3Kγ, 6.02; at PI3Kα, 6.91.

Consider `Cn1cc(/C=C2\Oc3cccc(O)c3C2=O)c2c(-c3ccc(Oc4ccccc4)cc3)ccnc21` [Compound 84, (2Z)-4-hydroxy-2-{[1-methyl-4-(4-phenoxyphenyl)-1H-pyrrolo[2,3-b]pyridin-3-yl]methylene}-1-benzofuran-3(2H)-one], for which the pIC50 is 6.78 on mTOR, under 5.00 on PI3Kγ and 5.31 on PI3Kα.

For `Cn1cc(/C=C2\Oc3cccc(O)c3C2=O)c2c(-c3cc4ccccc4o3)ccnc21` [Compound 85, (2Z)-2-{[4-(1-benzofuran-2-yl)-1-methyl-1H-pyrrolo[2,3-b]pyridin-3-yl]methylene}-4-hydroxy-1-benzofuran-3(2H)-one], the pIC50 on mTOR is 7.58; at PI3Kγ, 6.80; at PI3Kα it was 6.56.

Turning to `COc1ccc(-c2ccnc3c2c(/C=C2\Oc4cccc(O)c4C2=O)cn3C)cc1S(=O)(=O)N1CCCC1` [Compound 86, (2Z)-4-hydroxy-2-({4-[4-methoxy-3-(pyrrolidin-1-ylsulfonyl)phenyl]-1-methyl-1H-pyrrolo[2,3-b]pyridin-3-yl}methylene)-1-benzofuran-3(2H)-one], the pIC50 on mTOR was 8.47; on PI3Kγ it was 6.22; at PI3Kα, 7.11.

With `Cn1cc(/C=C2\Oc3cc(O)cc(O)c3C2=O)c2c(-c3ccc(Oc4ccccc4)cc3)ccnc21` [Compound 87, (2Z)-4,6-dihydroxy-2-{[1-methyl-4-(4-phenoxyphenyl)-1H-pyrrolo[2,3-b]pyridin-3-yl]methylene}-1-benzofuran-3(2H)-one], the pIC50 was 8.44 on mTOR, 7.18 on PI3Kγ and 6.79 at PI3Kα.

Take `COc1ccc(-c2ccnc3c2c(/C=C2\Oc4cc(O)cc(O)c4C2=O)cn3C)cc1S(=O)(=O)N1CCOCC1` [Compound 88, (2Z)-4,6-dihydroxy-2-({4-[4-methoxy-3-(morpholin-4-ylsulfonyl)phenyl]-1-methyl-1H-pyrrolo[2,3-b]pyridin-3-yl}methylene)-1-benzofuran-3(2H)-one]: the figures for the pIC50 on mTOR, on PI3Kγ and at PI3Kα were 9.70, 7.57 and 8.10, respectively.

As for `COc1ccc(-c2ccnc3c2c(/C=C2\Oc4cc(O)cc(O)c4C2=O)cn3C)cc1S(=O)(=O)N1CCCC1` [Compound 89, (2Z)-4,6-dihydroxy-2-({4-[4-methoxy-3-(pyrrolidin-1-ylsulfonyl)phenyl]-1-methyl-1H-pyrrolo[2,3-b]pyridin-3-yl}methylene)-1-benzofuran-3(2H)-one], the figures for the pIC50 at mTOR, on PI3Kγ and on PI3Kα were 9.30, 7.30 and 8.10, respectively.

In the case of `Cn1cc(/C=C2\Oc3cccc(O)c3C2=O)c2c(-c3ccc(S(=O)(=O)NCc4ccccc4)cc3)ccnc21` [Compound 90, N-benzyl-4-{3-[(Z)-(4-hydroxy-3-oxo-1-benzofuran-2(3H)-ylidene)methyl]-1-methyl-1H-pyrrolo[2,3-b]pyridin-4-yl}benzenesulfonamide], the negative logarithm of the IC50 (pIC50) on mTOR was 7.62; on PI3Kγ, 7.80; at PI3Kα, 8.00.

As for `Cn1cc(/C=C2\Oc3cccc(O)c3C2=O)c2c(-c3ccc(C(=O)N4CCCC4)cc3)ccnc21` [Compound 91, (2Z)-4-hydroxy-2-({1-methyl-4-[4-(pyrrolidin-1-ylcarbonyl)phenyl]-1H-pyrrolo[2,3-b]pyridin-3-yl}methylene)-1-benzofuran-3(2H)-one], the pIC50 is 9.15 at mTOR, 7.13 at PI3Kγ and 7.44 on PI3Kα.

As for `Cn1cc(/C=C2\Oc3cc(O)cc(O)c3C2=O)c2c(-c3ccc(C(=O)N4CCCC4)cc3)ccnc21` [Compound 92, (2Z)-4,6-dihydroxy-2-({1-methyl-4-[4-(pyrrolidin-1-ylcarbonyl)phenyl]-1H-pyrrolo[2,3-b]pyridin-3-yl}methylene)-1-benzofuran-3(2H)-one], the figures for the pIC50 at mTOR, on PI3Kγ and on PI3Kα were 9.70, 7.27 and 8.05, respectively.

With `Cn1cc(/C=C2\Oc3cccc(O)c3C2=O)c2c(-c3cccc(C(=O)Nc4ccc(F)cc4)c3)ccnc21` [Compound 96, N-(4-fluorophenyl)-3-{3-[(Z)-(4-hydroxy-3-oxo-1-benzofuran-2(3H)-ylidene)methyl]-1-methyl-1H-pyrrolo[2,3-b]pyridin-4-yl}benzamide], the pIC50 is 7.89 on mTOR, 5.57 at PI3Kγ and 6.52 at PI3Kα.

As to `Cn1cc(/C=C2\Oc3cc(O)cc(O)c3C2=O)c2c(-c3cccc(C(=O)Nc4ccc(F)cc4)c3)ccnc21` [Compound 97, 3-{3-[(Z)-(4,6-dihydroxy-3-oxo-1-benzofuran-2(3H)-ylidene)methyl]-1-methyl-1H-pyrrolo[2,3-b]pyridin-4-yl}-N-(4-fluorophenyl)benzamide], the results for the pIC50 at mTOR, at PI3Kγ and at PI3Kα were 9.15, 6.49 and 7.89, respectively.
